For this data set the following is noted: in vivo, iv. The source says: The present invention thus provides novel and non-obvious antimicrobial polyamide compositions, and methods of using same for treating and preventing mastitis in non-human animals. The methods generally comprise administering to an infected animal an effective amount of the veterinary composition to eliminate or cure, completely or substantially, mastitis-causing pathogen(s).

Maximum tolerated dose data for 1 substance are collected here from patent US10131744B2, “Antimicrobial polyamide compositions and mastitis treatment” (priority 2013, dated 2018).

With “poly (4,4′-trimethylene dipiperidine bispropanoic acid-co-1,3-diamino propane)”, the maximum tolerated dose is reported as around 40 mg/kg.
